Assay results reported in patent publication US5807825A, “Platelet aggregation inhibitors” (COR Therapeutics, Inc., priority 1995, dated 1998).
Where a SMILES comes first, the peptide text is derived from it. Bridges are numbered along the chain shown (N, C = ends).

What was measured:
[1] = system: thrombi formation in dog coronary arteries; assay: Folts model of thrombosis, cyclic flow reductions (CFRs) in open chest dog coronary artery; format: in vivo
Method: A. Initiation of cyclic flow reductions (CFRs) in open chest dog. An occluder placed on the left anterior descending (LAD) coronary artery of a 20 kg dog, as previously described was performed.

GP IIb-IIIa = molecular target: T1, GP IIb-IIIa (Homo sapiens, UniProt P05106+P08514); assay: plate assay: binding of labeled ligand (fibrinogen, vWF) to immobilized purified GP IIb-IIIa; details: plate assays, in words; FIGS. 2A-2C, 30A-30E
T1 construct: Purified platelet GP IIb-IIIa receptor was prepared as described by Fitzgerald, L. A., et al; from tissue; host or cells: platelets
Method: In the assay, GP IIb-IIIa, prepared in purified form, for example as described by Fitzgerald, L. A., et al., Anal Biochem (1985) 151:169-177, incorporated herein by reference, is coated onto a solid support such as beads, test tubes, or microtiter plates. […] Fibrinogen is typically provided at a concentration of about 5-50 nM and the test material can, if desired, be added at a series of dilutions. Typical incubations are 2-4 hr at 35° C., the time and temperature being interdependent.
After incubation, the solution containing the fibrinogen and test material is removed and the level of binding of fibrinogen measured by quantitating bound fibrinogen to GP IIb-IIIa. Any suitable means of detection may be used, but it is convenient to employ labeled fibrinogen, for example using radioactive, fluorescent or biotinylated labels. Such methods are well known and need not be elaborated here.
In this case, percent inhibition may be calculated using the amount of Fg bound in the control as representing the basis, so that [formula] Other measures of inhibition effectiveness, such as IC50, may also be used.
Purified platelet GP IIb-IIIa receptor was prepared as described by Fitzgerald, L. A., et al., Anal Biochem (1985) 151:169-177. […] After purification, the receptors were stored in 0.1% Triton X-100 at 0.1-1.0 mg/ml. […]
The labeled ligands were added to the receptor-coated wells at final concentration of 10 nM (100 ul/well) and incubated for 3 h at 30° C. in the presence or absence of the test samples. After incubation, the wells are aspirated to dryness and bound ligand is quantitated.
For ^125 I-labeled ligands, the protein is solubilized with 250 ul SDS. For biotinylated ligands, the bound protein is detected by the addition of antibiotin antibody conjugated to alkaline phosphatase followed by addition of substrate (p-nitrophenyl phosphate), and determination of the optical density of each well at 405 nm. […]

M21 melanoma cells = assay: attachment of 35S-methionine labelled M21 melanoma cells to vitronectrin-coated plates; format: cell-based; details: FIGS. 31-34
Method: M21 melanoma cells, which express high levels of the vitronectrin receptor, were metabolically labelled with ^35 S-methionine, and then added to 24-well tissue culture plates coated with vitronectrin. An incubation period of 1 hr at 37° C. was allowed for cell attachment, and this was followed by a wash to remove non-adherent cells. After washing, the adherent cells were solubilized, and the supernatants placed in a liquid scintillation counter. The fraction of cells remaining adherent was calculated by dividing the cpm in the solubilized supernatants by the cpm in the total number of cells added to each well. The effects of purified snake venom peptides and synthetic cyclic peptides on cell adhesion was determined by including them with the M21 cells during the incubation period.
M21 melanoma cells were labelled with ^35 S-methionine, and then added to vitronectrin-coated plates in the presence of the indicated concentrations of purified snake venom peptides. Cell attachment was measured by solubilizing the cells remaining after an incubation and wash, as described in Section C, on page 40.

vitronectrin receptor [2] = molecular target: T2, vitronectrin receptor (Homo sapiens, UniProt P05106+P06756); assay: plate assay: binding of labeled ligand (vitronectrin, vWF) to immobilized vitronectrin receptor; details: FIGS. 26-28
T2 construct: Vitronectrin receptor was prepared as described by Smith, J. W., J Biol Chem (1988) 263:18726-18731; from tissue

fibronectin receptor = fibronectin receptor (Homo sapiens, UniProt P05556+P08648); details: background art; cited from earlier work
vitronectrin receptor [3] = molecular target: T2, vitronectrin receptor; details: background art; compared with same peptide before cyclization; cited from earlier work

T1 sequence (P08514 32-887 limits assumed): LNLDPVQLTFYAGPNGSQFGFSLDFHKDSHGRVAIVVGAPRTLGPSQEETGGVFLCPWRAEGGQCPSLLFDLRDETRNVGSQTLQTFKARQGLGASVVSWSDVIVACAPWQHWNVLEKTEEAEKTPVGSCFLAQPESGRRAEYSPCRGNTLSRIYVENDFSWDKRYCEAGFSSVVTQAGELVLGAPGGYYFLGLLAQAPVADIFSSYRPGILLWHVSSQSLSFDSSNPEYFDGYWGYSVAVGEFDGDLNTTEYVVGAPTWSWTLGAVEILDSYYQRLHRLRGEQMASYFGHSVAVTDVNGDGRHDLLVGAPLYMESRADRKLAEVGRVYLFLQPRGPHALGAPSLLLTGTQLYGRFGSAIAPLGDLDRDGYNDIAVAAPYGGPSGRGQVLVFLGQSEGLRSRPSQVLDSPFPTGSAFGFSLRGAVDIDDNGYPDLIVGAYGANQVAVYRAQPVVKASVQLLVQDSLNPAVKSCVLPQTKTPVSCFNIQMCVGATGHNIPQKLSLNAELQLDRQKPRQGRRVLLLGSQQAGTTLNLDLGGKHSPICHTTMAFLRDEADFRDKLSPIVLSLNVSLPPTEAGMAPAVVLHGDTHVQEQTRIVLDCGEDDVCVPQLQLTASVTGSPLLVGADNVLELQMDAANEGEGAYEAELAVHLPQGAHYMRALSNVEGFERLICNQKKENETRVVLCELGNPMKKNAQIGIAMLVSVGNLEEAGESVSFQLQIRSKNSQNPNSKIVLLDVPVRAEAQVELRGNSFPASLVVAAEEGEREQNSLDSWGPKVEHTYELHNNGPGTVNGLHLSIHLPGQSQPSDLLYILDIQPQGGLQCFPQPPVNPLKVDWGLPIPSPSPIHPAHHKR
T1 sequence (P08514 891-1039 partner limits assumed): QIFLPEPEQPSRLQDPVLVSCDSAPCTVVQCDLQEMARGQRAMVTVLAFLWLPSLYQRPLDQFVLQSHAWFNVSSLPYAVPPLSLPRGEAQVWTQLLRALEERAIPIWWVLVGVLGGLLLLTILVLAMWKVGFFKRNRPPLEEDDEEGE
T1 sequence (P05106 27-788): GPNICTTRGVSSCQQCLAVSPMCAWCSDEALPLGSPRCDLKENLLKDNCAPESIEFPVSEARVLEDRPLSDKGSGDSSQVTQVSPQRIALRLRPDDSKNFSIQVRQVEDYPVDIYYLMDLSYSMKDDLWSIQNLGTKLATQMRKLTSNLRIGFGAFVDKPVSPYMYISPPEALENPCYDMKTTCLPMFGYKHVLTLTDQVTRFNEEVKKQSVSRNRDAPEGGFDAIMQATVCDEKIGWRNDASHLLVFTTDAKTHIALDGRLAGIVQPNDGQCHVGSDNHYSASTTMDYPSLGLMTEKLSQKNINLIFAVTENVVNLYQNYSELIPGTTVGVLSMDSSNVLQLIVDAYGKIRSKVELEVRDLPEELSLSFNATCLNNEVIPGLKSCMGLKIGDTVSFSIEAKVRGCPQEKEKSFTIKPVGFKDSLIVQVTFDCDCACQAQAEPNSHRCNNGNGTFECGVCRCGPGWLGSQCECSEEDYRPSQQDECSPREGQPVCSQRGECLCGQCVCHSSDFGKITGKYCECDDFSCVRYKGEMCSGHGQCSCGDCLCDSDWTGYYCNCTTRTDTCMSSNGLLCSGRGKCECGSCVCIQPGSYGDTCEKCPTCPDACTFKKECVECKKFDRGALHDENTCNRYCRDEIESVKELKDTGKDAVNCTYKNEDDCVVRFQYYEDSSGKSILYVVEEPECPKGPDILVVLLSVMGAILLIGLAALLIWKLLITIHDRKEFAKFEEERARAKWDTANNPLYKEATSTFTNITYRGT
T2 sequence (P06756 31-889 limits assumed): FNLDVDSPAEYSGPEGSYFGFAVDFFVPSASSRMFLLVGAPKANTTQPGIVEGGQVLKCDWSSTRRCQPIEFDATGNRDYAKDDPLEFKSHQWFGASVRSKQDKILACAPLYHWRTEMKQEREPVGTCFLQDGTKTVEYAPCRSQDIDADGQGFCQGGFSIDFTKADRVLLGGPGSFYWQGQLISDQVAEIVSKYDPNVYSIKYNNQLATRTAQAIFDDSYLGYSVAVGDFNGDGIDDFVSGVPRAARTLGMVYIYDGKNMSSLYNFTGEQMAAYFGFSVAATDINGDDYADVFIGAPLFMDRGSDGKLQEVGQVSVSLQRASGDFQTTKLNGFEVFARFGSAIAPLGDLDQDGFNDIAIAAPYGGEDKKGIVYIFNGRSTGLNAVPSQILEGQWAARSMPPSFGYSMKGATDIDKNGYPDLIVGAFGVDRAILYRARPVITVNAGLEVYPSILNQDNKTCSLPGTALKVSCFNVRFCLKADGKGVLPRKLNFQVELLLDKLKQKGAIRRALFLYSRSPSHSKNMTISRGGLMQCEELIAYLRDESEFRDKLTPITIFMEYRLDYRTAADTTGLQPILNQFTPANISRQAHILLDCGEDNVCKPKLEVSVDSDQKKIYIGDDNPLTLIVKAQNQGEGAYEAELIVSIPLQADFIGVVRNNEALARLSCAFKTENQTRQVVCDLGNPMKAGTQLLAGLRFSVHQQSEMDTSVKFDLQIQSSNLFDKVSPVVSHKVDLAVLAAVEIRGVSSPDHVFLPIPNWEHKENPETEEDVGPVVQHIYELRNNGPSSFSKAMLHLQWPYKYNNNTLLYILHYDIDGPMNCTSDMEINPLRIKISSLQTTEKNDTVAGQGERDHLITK
T2 sequence (P06756 891-1048 partner limits assumed): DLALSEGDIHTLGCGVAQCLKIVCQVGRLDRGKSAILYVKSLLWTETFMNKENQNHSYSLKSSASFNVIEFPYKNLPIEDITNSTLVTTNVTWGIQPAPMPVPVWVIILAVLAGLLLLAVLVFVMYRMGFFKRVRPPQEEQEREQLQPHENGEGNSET
T2 sequence (P05106 27-788): as the sequence (P05106 27-788) above
Chain of fibronectin receptor (P08648 42-894 limits assumed): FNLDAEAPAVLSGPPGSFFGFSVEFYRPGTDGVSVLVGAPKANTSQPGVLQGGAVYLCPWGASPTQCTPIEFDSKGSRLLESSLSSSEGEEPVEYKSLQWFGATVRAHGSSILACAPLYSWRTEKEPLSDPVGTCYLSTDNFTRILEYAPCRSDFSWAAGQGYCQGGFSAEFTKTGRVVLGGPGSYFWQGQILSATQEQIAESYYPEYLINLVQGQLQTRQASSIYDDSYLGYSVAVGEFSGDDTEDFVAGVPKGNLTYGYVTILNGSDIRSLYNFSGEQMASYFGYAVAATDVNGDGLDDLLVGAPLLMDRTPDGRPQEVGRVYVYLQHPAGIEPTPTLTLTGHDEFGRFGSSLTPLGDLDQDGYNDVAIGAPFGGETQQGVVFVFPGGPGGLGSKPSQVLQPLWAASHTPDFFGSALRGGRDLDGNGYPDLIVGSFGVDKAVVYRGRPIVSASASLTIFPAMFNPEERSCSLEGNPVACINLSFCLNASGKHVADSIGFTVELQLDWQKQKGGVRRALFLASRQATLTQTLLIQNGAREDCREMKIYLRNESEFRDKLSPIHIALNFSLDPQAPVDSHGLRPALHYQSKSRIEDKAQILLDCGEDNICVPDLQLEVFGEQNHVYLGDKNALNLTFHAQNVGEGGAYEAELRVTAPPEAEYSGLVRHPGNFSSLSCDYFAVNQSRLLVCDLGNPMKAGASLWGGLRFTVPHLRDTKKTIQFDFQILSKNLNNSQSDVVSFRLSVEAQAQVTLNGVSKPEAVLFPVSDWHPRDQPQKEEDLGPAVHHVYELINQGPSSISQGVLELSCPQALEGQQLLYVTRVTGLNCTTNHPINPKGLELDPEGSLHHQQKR
Chain of fibronectin receptor (P08648 895-1049 partner limits assumed): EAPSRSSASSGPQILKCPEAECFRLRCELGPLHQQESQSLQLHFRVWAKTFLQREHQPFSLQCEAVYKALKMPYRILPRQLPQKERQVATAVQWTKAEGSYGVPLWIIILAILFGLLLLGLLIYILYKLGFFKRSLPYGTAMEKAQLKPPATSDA
Chain of fibronectin receptor (P05556 21-798): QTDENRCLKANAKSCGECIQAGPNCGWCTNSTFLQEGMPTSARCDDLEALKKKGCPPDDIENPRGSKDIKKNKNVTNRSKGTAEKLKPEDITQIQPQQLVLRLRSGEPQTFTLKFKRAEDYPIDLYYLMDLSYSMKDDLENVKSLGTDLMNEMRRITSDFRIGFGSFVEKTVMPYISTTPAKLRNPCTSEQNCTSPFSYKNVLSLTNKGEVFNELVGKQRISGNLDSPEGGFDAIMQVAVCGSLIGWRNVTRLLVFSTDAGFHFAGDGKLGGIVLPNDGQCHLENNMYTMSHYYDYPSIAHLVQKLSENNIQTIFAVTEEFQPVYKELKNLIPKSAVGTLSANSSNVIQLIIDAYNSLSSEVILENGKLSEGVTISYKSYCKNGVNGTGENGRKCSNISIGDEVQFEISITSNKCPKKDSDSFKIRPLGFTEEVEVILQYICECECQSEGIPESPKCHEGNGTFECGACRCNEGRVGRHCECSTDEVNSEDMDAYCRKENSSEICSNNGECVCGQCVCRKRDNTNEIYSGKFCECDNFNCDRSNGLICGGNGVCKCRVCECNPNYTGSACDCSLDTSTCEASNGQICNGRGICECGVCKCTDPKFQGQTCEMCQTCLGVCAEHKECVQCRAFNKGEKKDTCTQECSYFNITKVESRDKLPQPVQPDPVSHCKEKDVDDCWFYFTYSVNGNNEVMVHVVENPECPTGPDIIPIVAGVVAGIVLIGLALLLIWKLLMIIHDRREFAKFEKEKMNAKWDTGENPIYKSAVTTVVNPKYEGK

| Compound | specificity: inhibition of fibrinogen/GP IIb-IIIa binding compared with vitronectrin/vitronectrin receptor binding (GP IIb-IIIa) | effect on M21 cell adhesion/attachment to vitronectrin, in words (M21 melanoma cells) | also measured |
| --- | --- | --- | --- |
| C[C@H](NC(=O)[C@@H]1CSSC[C@H](NC(=O)CN)C(=O)NCC(=O)N[C@@H](CCCCN)C(=O)NCC(=O)N[C@@H](CC(=O)O)C(=O)N[C@@H](Cc2c[nH]c3ccccc23)C(=O)N2CCC[C@H]2C(=O)N1)C(N)=O [#3] |  |  | effect on cyclic flow reductions (CFRs) in LAD coronary artery ([1]; 10 mg into a peripheral vein, 20 kg open chest dog, FIG. 36): partial ablation of the CFRs; effect on cyclic flow reductions (CFRs) in LAD coronary artery ([1]; second infusion of 40 mg into a peripheral vein, FIG. 37): complete ablation of the CFRs |
| C[C@H](NC(=O)[C@@H]1CSSC[C@H](NC(=O)CN)C(=O)N[C@@H](CCCCN)C(=O)NCC(=O)N[C@@H](CC(=O)O)C(=O)N[C@@H](Cc2c[nH]c3ccccc23)C(=O)N2CCC[C@H]2C(=O)N1)C(N)=O [#4] (H-GCKGDWPCA-NH2; disulfide 2-8) | highest differential |  |  |
| NCCCC[C@@H]1NC(=O)CNC(=O)[C@@H](N)CSSC[C@@H](C(N)=O)NC(=O)[C@@H]2CCCN2C(=O)[C@H](Cc2c[nH]c3ccccc23)NC(=O)[C@H](CC(=O)O)NC(=O)CNC1=O [#5] (H-CGKGDWPC-NH2; disulfide 1-8) | quite specific |  |  |
| C[C@H](NC(=O)[C@@H]1CSSC[C@H](NC(=O)CN)C(=O)N[C@@H](CCCCN)C(=O)NCC(=O)N[C@@H](CC(=O)O)C(=O)N[C@@H](Cc2c[nH]c3ccccc23)C(=O)N1)C(N)=O [#7] (H-GCKGDWCA-NH2; disulfide 2-7) | quite specific |  |  |
| C[C@H](NC(=O)[C@@H]1CSSC[C@H](NC(=O)CN)C(=O)NCC(=O)N[C@@H](CCCCN)C(=O)NCC(=O)N[C@@H](CC(=O)O)C(=O)N[C@@H](Cc2c[nH]c3ccccc23)C(=O)N2CCC[C@H]2C(=O)N1)C(N)=O [Analog #3, G-C-G-K-G-D-W-P-C-A-NH2] |  | ineffective up to 60 uM |  |
| N=C(N)NCCC[C@H](N)C(=O)NCC(=O)N[C@@H](CC(=O)O)C(=O)N[C@@H](CO)C(=O)O [RGDS, reference compound] |  | potent inhibitors of cell attachment |  |
| C[C@H](NC(=O)[C@@H]1CSSC[C@H](NC(=O)CN)C(=O)NCC(=O)N[C@@H](CCCNC(=N)N)C(=O)NCC(=O)N[C@@H](CC(=O)O)C(=O)N[C@@H](Cc2c[nH]c3ccccc23)C(=O)N2CCC[C@H]2C(=O)N1)C(N)=O [reference compound] (H-GCGRGDWPCA-NH2; disulfide 2-9) |  | potent inhibitors of cell attachment |  |
| ECADGLCCDQCRFLKKGTVCRVAKGDWNDDTCTGQSC- D-C-P-R-N-G-L-Y-G (ECADGLCCDQCRFLKKGTVCRVAKGDWNDDTCTGQSCDCPRNGLYG) [Analog #1] |  | neither barbourin nor Peptide 1 (truncated barbourin) had a significant effect |  |
| EEPCATGPCCRRCKFKRAGKVCRVAKGDWNNDYCTGK- S-C-D-C-P-R-N-P-W-N-G (EEPCATGPCCRRCKFKRAGKVCRVAKGDWNNDYCTGKSCDCPRNPWNG) [Analog #2] |  |  | inhibition of vitronectrin binding to vitronectrin receptor, in words (vitronectrin receptor [2]): inability to inhibit the binding of vitronectrin to the vitronectrin receptor |
| Gly-Pen-Gly-Arg-Gly-Asp-Ser-Pro-Cys-Ala (GRGDSPCA; N-terminal Gly-Pen; Pen-Cys disulfide cyclisation; printed: Gly-Arg-Gly-Asp-Ser-Pro-Cys-Ala) [cyclic peptide, disulfide bridge between Pen and Cys (Pierschbacher)] |  |  | inhibition of fibronectin binding, in words (fibronectin receptor): ineffective in inhibiting fibronectin binding; inhibition of vitronectrin binding, in words (vitronectrin receptor [3]): able to inhibit vitronectrin binding more strongly than the same peptide before cyclization |
